Test results as given in PMC9150124, “Design of a Potent, Selective, and Brain-Penetrant Inhibitor of Wnt-Deactivating Enzyme Notum by Optimization of a Crystallographic Fragment Hit” (Journal of Medicinal Chemistry, 2022).

Key:
Assay in all cases: SelectScreen kinase profiling, SSBK ZLyte SP Technology
Assay type in all cases: biochemical
[1] = molecular target: kinase named in conditions (Homo sapiens, UniProt P00519, G250E); conditions: ABL1 G250E, 10 μM
Procedure: (§1) Kinase selectivity screening was performed by Thermo Fisher Scientific (Paisley, U.K.) in their SelectScreen Biochemical Kinase Profiling Service. Assay information and data are presented in the Supporting Information.
(§2) Kinase selectivity screening was performed by ThermoFisher Scientific (Paisley, U.K.) in their SelectScreenTM
(§3) Biochemical Kinase Profiling service .

[2] = molecular target: kinase named in conditions (Homo sapiens, UniProt P00533, C797S/L858R/T790M); conditions: EGFR (ErbB1) T790M C797S L858R, 10 μM
Procedure: as §1, §2, §3

[3] = molecular target: kinase named in conditions (Homo sapiens, UniProt P04626); conditions: ERBB2 (HER2), 10 μM
Procedure: as §1, §2, §3

[4] = molecular target: kinase named in conditions (Homo sapiens, UniProt P05771); conditions: PRKCB1 (PKC beta I), 10 μM
Procedure: as §1, §2, §3

[5] = molecular target: kinase named in conditions (Homo sapiens, UniProt P06241); conditions: FYN, 10 μM
Procedure: as §1, §2, §3

[6] = molecular target: kinase named in conditions (Homo sapiens, UniProt P07947); conditions: YES1, 10 μM
Procedure: as §1, §2, §3

[7] = molecular target: kinase named in conditions (Homo sapiens, UniProt P07949, Y791F); conditions: RET Y791F, 10 μM
Procedure: as §1, §2, §3

[8] = molecular target: kinase named in conditions (Homo sapiens, UniProt P08581); conditions: MET (cMet), 10 μM
Procedure: as §1, §2, §3

[9] = molecular target: kinase named in conditions (Homo sapiens, UniProt P10721, V559D); conditions: KIT V559D, 10 μM
Procedure: as §1, §2, §3

[10] = molecular target: kinase named in conditions (Homo sapiens, UniProt P16234, T674I); conditions: PDGFRA T674I, 10 μM
Procedure: as §1, §2, §3

[11] = molecular target: kinase named in conditions (Homo sapiens, UniProt P16591); conditions: FER, 10 μM
Procedure: as §1, §2, §3

[12] = molecular target: kinase named in conditions (Homo sapiens, UniProt P21802); conditions: FGFR2, 10 μM
Procedure: as §1, §2, §3

[13] = molecular target: kinase named in conditions (Homo sapiens, UniProt P29376); conditions: LTK (TYK1), 10 μM
Procedure: as §1, §2, §3

[14] = molecular target: kinase named in conditions (Homo sapiens, UniProt P34947); conditions: GRK5, 10 μM
Procedure: as §1, §2, §3

[15] = molecular target: kinase named in conditions (Homo sapiens, UniProt P42685); conditions: FRK (PTK5), 10 μM
Procedure: as §1, §2, §3

[16] = molecular target: kinase named in conditions (Homo sapiens, UniProt P51817); conditions: PRKX, 10 μM
Procedure: as §1, §2, §3

[17] = molecular target: kinase named in conditions (Homo sapiens, UniProt P51955); conditions: NEK2, 10 μM
Procedure: as §1, §2, §3

[18] = molecular target: kinase named in conditions (Homo sapiens, UniProt P52564); conditions: MAP2K6 (MKK6), 10 μM
Procedure: as §1, §2, §3

[19] = molecular target: kinase named in conditions (Homo sapiens, UniProt P78368); conditions: CSNK1G2 (CK1 gamma 2), 10 μM
Procedure: as §1, §2, §3

[20] = molecular target: kinase named in conditions (Homo sapiens, UniProt Q02763, Y897S); conditions: TEK (TIE2) Y897S, 10 μM
Procedure: as §1, §2, §3

[21] = molecular target: kinase named in conditions (Homo sapiens, UniProt Q05397); conditions: PTK2 (FAK), 10 μM
Procedure: as §1, §2, §3

[22] = molecular target: kinase named in conditions (Homo sapiens, UniProt Q12851); conditions: MAP4K2 (GCK), 10 μM
Procedure: as §1, §2, §3

[23] = molecular target: kinase named in conditions (Homo sapiens, UniProt Q13177); conditions: PAK2 (PAK65), 10 μM
Procedure: as §1, §2, §3

[24] = molecular target: kinase named in conditions (Homo sapiens, UniProt Q16512); conditions: PKN1 (PRK1), 10 μM
Procedure: as §1, §2, §3

[25] = molecular target: kinase named in conditions (Homo sapiens, UniProt Q6VAB6); conditions: KSR2, 10 μM
Procedure: as §1, §2, §3

[26] = molecular target: kinase named in conditions (Homo sapiens, UniProt Q8N752); conditions: CSNK1A1L, 10 μM
Procedure: as §1, §2, §3

[27] = molecular target: kinase named in conditions (Homo sapiens, UniProt Q96BR1); conditions: SGKL (SGK3), 10 μM
Procedure: as §1, §2, §3

[28] = molecular target: kinase named in conditions (Homo sapiens, UniProt Q96PY6); conditions: NEK1, 10 μM
Procedure: as §1, §2, §3

[29] = molecular target: kinase named in conditions (Homo sapiens, UniProt Q9BXA7); conditions: STK22D (TSSK1), 10 μM
Procedure: as §1, §2, §3

[30] = molecular target: kinase named in conditions (Homo sapiens, UniProt Q9H0K1); conditions: SNF1LK2, 10 μM
Procedure: as §1, §2, §3

[31] = molecular target: kinase named in conditions (Homo sapiens, UniProt Q9H3Y6); conditions: SRMS (Srm), 10 μM
Procedure: as §1, §2, §3

[32] = molecular target: kinase named in conditions (Homo sapiens, UniProt Q9NWZ3); conditions: IRAK4, 10 μM
Procedure: as §1, §2, §3

[33] = molecular target: kinase named in conditions (Homo sapiens, UniProt Q9P289); conditions: MST4, 10 μM
Procedure: as §1, §2, §3

[34] = test system: kinase named in conditions
Procedure: as §1, §2, §3

Sequence of kinase named in conditions (Homo sapiens, UniProt P52564) (P52564 whole entry): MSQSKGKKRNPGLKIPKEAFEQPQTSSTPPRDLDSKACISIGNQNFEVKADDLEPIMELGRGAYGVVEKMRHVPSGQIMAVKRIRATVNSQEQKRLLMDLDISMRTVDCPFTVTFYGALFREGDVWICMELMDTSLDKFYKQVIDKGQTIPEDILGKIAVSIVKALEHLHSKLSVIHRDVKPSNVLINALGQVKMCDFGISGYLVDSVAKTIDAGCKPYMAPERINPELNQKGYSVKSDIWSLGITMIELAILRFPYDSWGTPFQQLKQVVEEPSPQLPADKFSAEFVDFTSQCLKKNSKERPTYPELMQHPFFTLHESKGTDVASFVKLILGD
Sequence of kinase named in conditions (Homo sapiens, UniProt P05771) (P05771 whole entry): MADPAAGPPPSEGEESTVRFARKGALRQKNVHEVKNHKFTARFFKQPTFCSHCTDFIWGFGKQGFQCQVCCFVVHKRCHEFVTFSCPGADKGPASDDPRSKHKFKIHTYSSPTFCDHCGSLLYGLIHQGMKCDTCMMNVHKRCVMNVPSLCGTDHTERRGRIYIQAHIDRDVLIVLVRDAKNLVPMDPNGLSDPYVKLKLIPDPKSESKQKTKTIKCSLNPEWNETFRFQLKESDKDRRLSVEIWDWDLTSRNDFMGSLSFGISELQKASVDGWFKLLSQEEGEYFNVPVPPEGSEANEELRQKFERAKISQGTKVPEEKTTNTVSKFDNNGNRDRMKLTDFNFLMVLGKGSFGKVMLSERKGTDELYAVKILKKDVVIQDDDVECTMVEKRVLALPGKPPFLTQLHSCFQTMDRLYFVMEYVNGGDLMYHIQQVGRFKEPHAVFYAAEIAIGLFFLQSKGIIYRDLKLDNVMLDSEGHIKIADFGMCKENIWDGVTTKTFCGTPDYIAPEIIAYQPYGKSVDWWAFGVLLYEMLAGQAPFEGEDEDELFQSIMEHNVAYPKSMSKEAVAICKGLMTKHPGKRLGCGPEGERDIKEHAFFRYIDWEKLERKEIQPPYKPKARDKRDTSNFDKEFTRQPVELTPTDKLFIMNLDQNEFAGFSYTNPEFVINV
Sequence of kinase named in conditions (Homo sapiens, UniProt P04626) (P04626 23-1255): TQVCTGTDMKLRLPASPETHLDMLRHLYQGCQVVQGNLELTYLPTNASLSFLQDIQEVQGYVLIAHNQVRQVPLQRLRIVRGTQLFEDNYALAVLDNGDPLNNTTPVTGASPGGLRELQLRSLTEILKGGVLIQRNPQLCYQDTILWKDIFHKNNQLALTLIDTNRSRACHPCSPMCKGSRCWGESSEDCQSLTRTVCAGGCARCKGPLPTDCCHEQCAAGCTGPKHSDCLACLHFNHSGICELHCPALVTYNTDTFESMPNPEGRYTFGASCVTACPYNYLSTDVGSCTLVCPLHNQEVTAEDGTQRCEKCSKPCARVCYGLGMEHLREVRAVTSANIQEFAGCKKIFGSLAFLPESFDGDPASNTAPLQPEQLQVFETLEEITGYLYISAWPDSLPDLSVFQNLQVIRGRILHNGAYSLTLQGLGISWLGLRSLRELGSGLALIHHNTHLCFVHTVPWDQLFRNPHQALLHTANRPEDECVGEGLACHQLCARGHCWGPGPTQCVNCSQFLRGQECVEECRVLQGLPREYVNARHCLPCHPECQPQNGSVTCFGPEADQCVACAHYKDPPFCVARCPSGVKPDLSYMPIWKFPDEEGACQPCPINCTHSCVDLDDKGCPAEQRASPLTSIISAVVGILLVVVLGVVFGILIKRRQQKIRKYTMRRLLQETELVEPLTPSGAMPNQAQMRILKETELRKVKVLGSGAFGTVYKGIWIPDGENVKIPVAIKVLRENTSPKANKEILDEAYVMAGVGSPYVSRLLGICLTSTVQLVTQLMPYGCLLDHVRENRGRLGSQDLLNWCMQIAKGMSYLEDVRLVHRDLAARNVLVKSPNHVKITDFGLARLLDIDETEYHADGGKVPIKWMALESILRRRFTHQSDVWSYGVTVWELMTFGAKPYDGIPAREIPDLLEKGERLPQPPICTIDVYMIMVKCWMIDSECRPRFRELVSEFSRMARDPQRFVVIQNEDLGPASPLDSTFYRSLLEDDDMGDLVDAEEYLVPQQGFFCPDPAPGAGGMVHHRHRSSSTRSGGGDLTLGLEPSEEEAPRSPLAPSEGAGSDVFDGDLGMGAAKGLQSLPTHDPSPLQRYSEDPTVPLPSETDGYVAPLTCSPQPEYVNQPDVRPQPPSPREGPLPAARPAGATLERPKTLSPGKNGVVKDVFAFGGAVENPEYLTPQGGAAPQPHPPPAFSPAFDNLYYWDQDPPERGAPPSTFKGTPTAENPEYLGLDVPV
Sequence of kinase named in conditions (Homo sapiens, UniProt P51955) (P51955 whole entry): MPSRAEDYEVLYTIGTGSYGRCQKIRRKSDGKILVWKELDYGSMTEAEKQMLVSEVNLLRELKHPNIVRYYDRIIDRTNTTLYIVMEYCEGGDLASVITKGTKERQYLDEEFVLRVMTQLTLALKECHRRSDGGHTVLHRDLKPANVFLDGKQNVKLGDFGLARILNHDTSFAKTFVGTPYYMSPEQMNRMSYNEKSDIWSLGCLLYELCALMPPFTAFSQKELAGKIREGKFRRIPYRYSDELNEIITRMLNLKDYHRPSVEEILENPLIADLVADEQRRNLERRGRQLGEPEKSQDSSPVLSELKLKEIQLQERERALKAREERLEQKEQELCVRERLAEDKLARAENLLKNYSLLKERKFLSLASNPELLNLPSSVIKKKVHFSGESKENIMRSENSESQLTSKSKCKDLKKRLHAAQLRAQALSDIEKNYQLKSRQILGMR
Sequence of kinase named in conditions (Homo sapiens, UniProt Q12851) (Q12851 whole entry): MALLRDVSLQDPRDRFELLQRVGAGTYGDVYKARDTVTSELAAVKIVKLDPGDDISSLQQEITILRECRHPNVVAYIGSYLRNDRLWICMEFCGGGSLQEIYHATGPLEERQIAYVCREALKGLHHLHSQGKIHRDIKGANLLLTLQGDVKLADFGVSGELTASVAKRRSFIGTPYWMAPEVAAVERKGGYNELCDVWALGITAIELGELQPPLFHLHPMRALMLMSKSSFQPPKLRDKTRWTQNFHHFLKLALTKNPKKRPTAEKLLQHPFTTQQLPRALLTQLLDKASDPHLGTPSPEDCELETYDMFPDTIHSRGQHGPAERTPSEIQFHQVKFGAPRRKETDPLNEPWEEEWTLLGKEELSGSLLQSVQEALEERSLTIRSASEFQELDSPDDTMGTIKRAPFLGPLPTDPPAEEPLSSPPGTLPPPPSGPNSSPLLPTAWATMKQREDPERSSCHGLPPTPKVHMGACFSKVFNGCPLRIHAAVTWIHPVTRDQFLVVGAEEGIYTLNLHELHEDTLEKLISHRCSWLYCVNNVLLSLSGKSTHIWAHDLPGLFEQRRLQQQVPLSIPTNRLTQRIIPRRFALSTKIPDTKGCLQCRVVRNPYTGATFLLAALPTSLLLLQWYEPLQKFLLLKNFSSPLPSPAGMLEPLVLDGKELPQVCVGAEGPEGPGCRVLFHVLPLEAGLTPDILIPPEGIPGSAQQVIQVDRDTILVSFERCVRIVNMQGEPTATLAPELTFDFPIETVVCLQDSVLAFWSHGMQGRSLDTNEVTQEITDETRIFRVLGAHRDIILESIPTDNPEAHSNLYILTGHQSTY
Sequence of kinase named in conditions (Homo sapiens, UniProt P34947) (P34947 whole entry): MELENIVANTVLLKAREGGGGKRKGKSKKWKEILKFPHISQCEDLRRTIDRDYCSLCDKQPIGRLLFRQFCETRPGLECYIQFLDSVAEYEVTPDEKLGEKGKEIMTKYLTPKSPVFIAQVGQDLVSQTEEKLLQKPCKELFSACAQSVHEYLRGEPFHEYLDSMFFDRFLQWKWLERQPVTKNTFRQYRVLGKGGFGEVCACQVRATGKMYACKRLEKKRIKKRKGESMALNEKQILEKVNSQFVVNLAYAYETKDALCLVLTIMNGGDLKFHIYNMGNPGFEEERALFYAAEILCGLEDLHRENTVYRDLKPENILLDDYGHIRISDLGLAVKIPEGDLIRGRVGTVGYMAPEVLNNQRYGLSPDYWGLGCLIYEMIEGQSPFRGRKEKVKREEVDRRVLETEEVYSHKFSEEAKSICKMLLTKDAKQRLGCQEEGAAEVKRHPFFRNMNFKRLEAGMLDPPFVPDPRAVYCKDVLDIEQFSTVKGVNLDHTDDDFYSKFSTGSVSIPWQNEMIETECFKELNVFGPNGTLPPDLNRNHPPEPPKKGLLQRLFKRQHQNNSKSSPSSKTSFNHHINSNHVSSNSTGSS
Sequence of kinase named in conditions (Homo sapiens, UniProt P21802) (P21802 22-821): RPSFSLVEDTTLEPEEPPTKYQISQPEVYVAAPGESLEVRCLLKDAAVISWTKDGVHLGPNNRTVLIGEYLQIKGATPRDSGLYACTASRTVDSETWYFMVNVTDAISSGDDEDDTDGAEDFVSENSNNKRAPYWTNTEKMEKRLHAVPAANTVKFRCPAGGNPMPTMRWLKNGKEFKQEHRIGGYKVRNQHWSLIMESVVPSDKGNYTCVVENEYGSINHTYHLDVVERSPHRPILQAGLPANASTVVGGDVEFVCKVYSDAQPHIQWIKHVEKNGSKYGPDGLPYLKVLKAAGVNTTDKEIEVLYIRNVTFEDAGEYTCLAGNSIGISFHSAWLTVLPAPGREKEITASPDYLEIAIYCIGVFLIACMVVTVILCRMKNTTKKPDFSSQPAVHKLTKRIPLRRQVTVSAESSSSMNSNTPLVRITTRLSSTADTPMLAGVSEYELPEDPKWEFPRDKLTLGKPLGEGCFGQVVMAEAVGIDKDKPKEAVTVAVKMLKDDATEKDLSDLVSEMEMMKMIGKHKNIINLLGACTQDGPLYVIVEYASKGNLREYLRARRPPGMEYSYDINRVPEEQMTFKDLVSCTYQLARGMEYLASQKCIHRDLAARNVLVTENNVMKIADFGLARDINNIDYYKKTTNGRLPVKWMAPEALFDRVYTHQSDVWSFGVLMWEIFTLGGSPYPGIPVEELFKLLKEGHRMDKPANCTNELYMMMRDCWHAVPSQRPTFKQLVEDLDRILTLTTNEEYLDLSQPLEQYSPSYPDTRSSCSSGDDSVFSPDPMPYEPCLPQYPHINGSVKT

FC(F)(F)c1c(Cl)ccc(-n2ccnn2)c1Cl [8l, 1-(2,4-Dichloro-3-(trifluoromethyl)phenyl)-1H-1,2,3-triazole]
inhibition at 10 µM [1]: 8% | inhibition at 10 µM [2]: -17% | inhibition at 10 µM [3]: 0% | inhibition at 10 µM [4]: 0% | inhibition at 10 µM [5]: 0% | inhibition at 10 µM [6]: 3% | inhibition at 10 µM [7]: 5% | inhibition at 10 µM [8]: 8% | inhibition at 10 µM [9]: -3% | inhibition at 10 µM [10]: 4% | inhibition at 10 µM [11]: 2% | inhibition at 10 µM [12]: 11% | inhibition at 10 µM [13]: 4% | inhibition at 10 µM [14]: -2% | inhibition at 10 µM [15]: 1% | inhibition at 10 µM [16]: 6% | inhibition at 10 µM [17]: -11% | inhibition at 10 µM [18]: 3% | inhibition at 10 µM [19]: -2% | inhibition at 10 µM [20]: 2% | inhibition at 10 µM [21]: 4% | inhibition at 10 µM [22]: -3% | inhibition at 10 µM [23]: 5% | inhibition at 10 µM [24]: -1% | inhibition at 10 µM [25]: 2% | inhibition at 10 µM [26]: -2% | inhibition at 10 µM [27]: 10% | inhibition at 10 µM [28]: 1% | inhibition at 10 µM [29]: -5% | inhibition at 10 µM [30]: 2% | inhibition at 10 µM [31]: 10% | inhibition at 10 µM [32]: 5% | inhibition at 10 µM [33]: 23% | % Inhibition mean ([34]; LYN B, 10 μM): 7% | % Inhibition mean ([34]; PRKCB2 (PKC beta II), 10 μM): -17% | % Inhibition mean ([34]; SRC N1, 10 μM): 4%
